The values below are quoted from earlier work in patent US6894093B2, “Materials free of endorine disruptive chemicals” (priority 2001, dated 2005).

Where two headings read alike, the source gives them in different places.

Details of data set [1]: key: Estrogenic (EA); Carcinogenic (CA) Activity. To be noted: plastic monomers.

Regarding `CC(C)(c1ccc(O)cc1)c1ccc(O)cc1` [Bisphenol A], the “Monomer Exhibits Estrogenic (EA) or Carcinogenic (CA) Activity” value in data set [1] was “EA”. Moreover, in the data set on estrogen receptor (ER) (statement in background text), the “endocrine disruptive activity” value is recorded as “exhibit endocrine disruptive activity” and the “estrogenic activity” value was “deleterious estrogenic activity”.
Take `CCCCC(CC)COC(=O)c1ccccc1C(=O)OCC(CC)CCCC` (stereo not shown) [DEHP, di(2-ethylhexyl) phthalate]: the “estrogenic activity” value in the data set on estrogen receptor (ER) (statement in background text) is on record as “estrogen-mimicking”.
Take `C=CCl` [Vinylchloride]: in data set [1], the “Monomer Exhibits Estrogenic (EA) or Carcinogenic (CA) Activity” value is listed as “CA”.
For the molecule `COc1ccc(O)c(C(C)(C)C)c1` [Butylated hydroxyanisole (BHA), Butylated hydroxyanisole], the ADI was 0 to 0.5 mg/kg.
Take `CCCOC(=O)c1cc(O)c(O)c(O)c1` [Propyl gallate]: the ADI was 0 to 2.5 mg/kg.
Take “(di)Butyl hydroxy toluene [(di)Butyl hydroxy toluene (BHT)]”: in the data set with estrogen receptor (ER), the “Predicted Estrogenic Activity” value is listed as “Yes” and the “endocrine disruptive activity” value was “exhibits endocrine disruptive activity”.
Regarding `CC(C)(C)c1cc(O)ccc1O` [Tert-Butylhydroquinone (TBHQ), Tert-Butylhydroquinone], the ADI is 0 to 0.2 mg/kg.
